The subject of this assay is E.c.-ALDC (acetolactate decarboxylase from Enterobacter cloacae). Kind of assay: circular dichroism at […] nm, formation of. Type of assay: biochemical. Particulars: pH 6, 30 °C; racemic substrate 5.3-53.4 mM. A general note: Circular dichroism is widely used to follow secondary structure.

In the case of `CC(=O)C(C)(O)C(=O)O` (racemic) [(±)-AL], the Km (as a rule, the concentration of substrate that gives half-maximal velocity) amounted to 12.2 mM.

(Values after PMC9090609 (RSC Advances, 2018).)
